Reference: publication PMC7213754 (Clinical cancer research : an official journal of the …, 2009)
Values joined by “and” are separate entries in the source; they are usually repeats but may differ in a detail not shown here. Equal entries are not always repeated. “Also recorded” adds a separate entry of the source.

Legend:
Pgp [1] = target: T1, Pgp (Homo sapiens, UniProt P08183); experiment: Rhodamine efflux from circulating CD56+ cells of patients
[2] = tested on: multidrug-resistant human tumor cell lines; details: in vitro; cited from earlier work
Pgp [3] = details: cited from earlier work
Pgp [4] = target: T1, Pgp; experiment: 99mTc-sestamibi scanning at baseline and after tariquidar; assay type: in vivo
[5] = Vinorelbine pharmacokinetics in patients, alone and with tariquidar; assay type: in vivo, human; details: for effect of tariquidar on vinorelbine pharmacokinetics: tariquidar 150 mg before vinorelbine
[6] = Tariquidar pharmacokinetics in patients; assay type: in vivo, human; details: for concentration at 24 h / concentration at 48 h: intravenous, mean plasma concentration
Pgp [7] = target: T1, Pgp; details: 150 mg tariquidar; cited from earlier work
[8] = cited from earlier work
[9] = cycle 2, 150 mg i.v. over 30 min, individual patients
[10] = vinorelbine after tariquidar (post), individual patients
[11] = vinorelbine after tariquidar, eight patients
[12] = vinorelbine alone (pre), individual patients
[13] = vinorelbine alone, eight patients

T1 sequence (P08183 whole entry): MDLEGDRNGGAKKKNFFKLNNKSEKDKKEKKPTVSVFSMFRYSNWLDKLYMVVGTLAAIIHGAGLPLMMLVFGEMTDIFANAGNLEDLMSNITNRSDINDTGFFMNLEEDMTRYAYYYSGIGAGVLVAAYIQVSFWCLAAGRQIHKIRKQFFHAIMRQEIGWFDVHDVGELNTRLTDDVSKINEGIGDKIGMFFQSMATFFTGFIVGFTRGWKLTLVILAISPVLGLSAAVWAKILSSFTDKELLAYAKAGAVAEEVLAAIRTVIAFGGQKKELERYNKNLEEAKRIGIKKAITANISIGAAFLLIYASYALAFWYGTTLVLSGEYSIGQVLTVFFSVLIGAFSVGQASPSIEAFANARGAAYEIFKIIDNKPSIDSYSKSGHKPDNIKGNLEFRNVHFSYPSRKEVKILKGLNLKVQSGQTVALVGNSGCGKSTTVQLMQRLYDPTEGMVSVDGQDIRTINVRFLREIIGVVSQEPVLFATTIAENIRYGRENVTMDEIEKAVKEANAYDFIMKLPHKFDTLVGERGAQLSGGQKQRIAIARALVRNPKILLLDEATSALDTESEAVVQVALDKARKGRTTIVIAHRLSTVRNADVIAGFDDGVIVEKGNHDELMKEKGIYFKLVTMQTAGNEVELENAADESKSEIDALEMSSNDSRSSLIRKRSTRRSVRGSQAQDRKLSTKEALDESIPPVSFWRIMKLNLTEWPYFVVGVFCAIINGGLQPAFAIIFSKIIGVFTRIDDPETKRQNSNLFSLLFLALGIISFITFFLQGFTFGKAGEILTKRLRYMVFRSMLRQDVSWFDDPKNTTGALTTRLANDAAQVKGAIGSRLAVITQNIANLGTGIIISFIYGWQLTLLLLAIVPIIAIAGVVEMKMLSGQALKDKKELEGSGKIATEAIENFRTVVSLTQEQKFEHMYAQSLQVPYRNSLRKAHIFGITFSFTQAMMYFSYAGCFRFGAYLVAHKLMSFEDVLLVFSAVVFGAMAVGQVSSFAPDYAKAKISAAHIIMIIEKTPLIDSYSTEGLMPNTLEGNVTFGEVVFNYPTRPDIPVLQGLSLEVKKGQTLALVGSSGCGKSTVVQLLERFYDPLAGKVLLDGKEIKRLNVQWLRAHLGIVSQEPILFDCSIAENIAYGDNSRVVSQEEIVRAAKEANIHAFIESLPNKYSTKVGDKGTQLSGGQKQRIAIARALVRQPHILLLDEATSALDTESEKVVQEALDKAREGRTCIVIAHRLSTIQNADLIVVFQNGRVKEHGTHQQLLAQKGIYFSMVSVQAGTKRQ

C/C=C/C[C@@H](C)C(=O)[C@H]1C(=O)N[C@@H](C(C)C)C(=O)N(C)CC(=O)N(C)[C@@H](CC(C)C)C(=O)N[C@@H](C(C)C)C(=O)N(C)[C@@H](CC(C)C)C(=O)N[C@@H](C)C(=O)N[C@H](C)C(=O)N(C)[C@@H](CC(C)C)C(=O)N(C)[C@@H](CC(C)C)C(=O)N(C)[C@@H](C(C)C)C(=O)N1C [PSC833, valspodar]
rhodamine efflux from CD56+ cells with exogenously added inhibitor (Pgp [1]; added exogenously to blood sample): completely blocked

COc1cc2c(cc1OC)CN(CCc1ccc(NC(=O)c3cc(OC)c(OC)cc3NC(=O)c3cnc4ccccc4c3)cc1)CC2 [tariquidar]
duration of action after removal of drug from the culture medium [2]: at least 22 hours
mode of inhibition of Pgp transport (Pgp [3]): noncompetitive
transport substrate of Pgp (Pgp [3]): not a transport substrate of Pgp
Pgp block by i.v. tariquidar compared with exogenous PSC833 (Pgp [1]; 8, 24 and 48 h after 150 mg i.v.): as effective in blocking Pgp as an excess of PSC833 added exogenously
effect on liver 99mTc-sestamibi clearance (Pgp [4]; 150-mg dose): reduced liver 99mTc-sestamibi clearance
difference in mean 99mTc-sestamibi AUC in heart, lungs and liver (Pgp [4]; baseline versus after tariquidar, all study patients): Large differences were noted in Pgp-expressing liver but not in the heart nor in the lungs
effect of tariquidar on vinorelbine pharmacokinetics [5]: no apparent effect of tariquidar on the disposition of vinorelbine; also recorded: did not affect the pharmacokinetics of vinorelbine
effect of tariquidar on vinorelbine pharmacokinetics ([5]; listed as Tariquidar): no effects on vinorelbine pharmacokinetics
difference in drug exposure between 2 patients ([6]; 150 mg tariquidar): > 7 fold
Clearance [6, 9]: 170 mL/min and 312 mL/min and 559 mL/min and 309 mL/min and 249 mL/min and 302 mL/min and 444 mL/min and 784 mL/min and 221 mL/min and 269 mL/min and 623 mL/min and 166 mL/min and 83 mL/min and 129 mL/min and 111 mL/min and 137 mL/min and 108 mL/min and 191 mL/min
Cmax [6, 9]: 1,551 ng/mL and 1,317 ng/mL and 963 ng/mL and 1,362 ng/mL and 1,102 ng/mL and 582 ng/mL and 1,168 ng/mL and 516 ng/mL and 912 ng/mL and 911 ng/mL and 622 ng/mL and 5,793 ng/mL and 3,632 ng/mL and 1,266 ng/mL and 6,113 ng/mL and 4,628 ng/mL and 2,207 ng/mL and 1,008 ng/mL
Half-life [6, 9]: 27.2 h and 33.2 h and 17.5 h and 25.5 h and 27.6 h and 43.8 h and 15.7 h and 14.2 h and 42.2 h and 23.8 h and 19.2 h and 32.9 h and 63.1 h and 44.4 h and 45.0 h and 50.6 h and 35.8 h
Vdss [6, 9]: 136 L and 343 L and 248 L and 206 L and 199 L and 661 L and 142 L and 348 L and 439 L and 553 L and 604 L and 82.3 L and 85.1 L and 447 L and 274 L and 234 L and 317 L and 247 L
concentration at 24 h ([6]; human, plasma, 150 mg, cycle 1): 119 ng/mL
concentration at 24 h ([6]; human, plasma, 150 mg, cycle 2): 121 ng/mL
concentration at 48 h ([6]; human, plasma, 150 mg, cycle 1): 79.4 ng/mL
concentration at 48 h ([6]; human, plasma, 150 mg, cycle 2): 69.5 ng/mL
Clearance ([6]; human, plasma, iv, 150 mg, Clearance, median, cycle 2, 150 mg i.v. over 30 min, 18 patients): 235 mL/min
Cmax ([6]; human, plasma, iv, 150 mg, Cmax, median, cycle 2, 150 mg i.v. over 30 min, 18 patients): 1220 ng/mL
Half-life ([6]; human, plasma, iv, 150 mg, Half-life, median, cycle 2, 150 mg i.v. over 30 min, 18 patients): 33 h
Vd ([6]; human, plasma, iv, 150 mg, Vdss, median, cycle 2, 150 mg i.v. over 30 min, 18 patients): 261 L
Clearance ([6]; human, plasma, iv, 150 mg, mean (±SD) clearance, 150 mg i.v.): 287 ± 196 mL/min
Half-life ([6]; human, plasma, iv, 150 mg, mean (±SD) terminal half-life, 150 mg i.v.): 33.6 ± 13.5 h
mean change of 99mTc-sestamibi accumulation and retention in the liver (Pgp [7]): +128%
tolerability (in vivo): well-tolerated

CCC1=C[C@@H]2CN(C1)Cc1c([nH]c3ccccc13)[C@@](C(=O)OC)(c1cc3c(cc1OC)N(C)[C@H]1[C@@](O)(C(=O)OC)[C@H](OC(C)=O)[C@]4(CC)C=CCN5CC[C@]31[C@@H]54)C2 [vinorelbine]
Clearance Post [5, 10]: 518 mL/min/m^2 and 536 mL/min/m^2 and 555 mL/min/m^2 and 1,097 mL/min/m^2 and 589 mL/min/m^2 and 617 mL/min/m^2 and 477 mL/min/m^2 and 462 mL/min/m^2
t1/2 Post [5, 10]: 23 h and 51 h and 21 h and 43 h and 36 h and 58 h
Clearance Post, median and range [5, 11]: 546 mL/min/m^2 and 462-1,097 mL/min/m^2
t1/2 Post, median and range [5, 11]: 21 to 58 h
AUC0-∞ Pre ([5]; vinorelbine alone (pre), i.v. bolus 20 or 22.5 mg/m^2, individual patients): 844 ng·h/mL and 635 ng·h/mL and 511 ng·h/mL and 838 ng·h/mL and 603 ng·h/mL and 758 ng·h/mL and 756 ng·h/mL
Clearance Pre [5, 12]: 600 mL/min/m^2 and 444 mL/min/m^2 and 591 mL/min/m^2 and 652 mL/min/m^2 and 398 mL/min/m^2 and 553 mL/min/m^2 and 495 mL/min/m^2 and 496 mL/min/m^2
t1/2 Pre [5, 12]: 22 h and 19 h and 28 h and 48 h and 21 h and 37 h and 36 h
AUC0-∞ Pre, median and range [5, 13]: 511 to 844 ng·h/mL
Clearance Pre, median and range [5, 13]: 524 mL/min/m^2 and 398-652 mL/min/m^2
t1/2 Pre, median and range [5, 13]: 18 to 48 h
effect of vinorelbine on tariquidar pharmacokinetics ([6]; human, in vivo): no effect on tariquidar pharmacokinetics
maximum tolerated dose of vinorelbine in the combination (days 1 and 8 every 21 d with tariquidar 150 mg, without filgrastim): 20 mg/m^2
dose of vinorelbine felt to be tolerable with zosuquidar ([8]; i.v. weekly for 3 weeks every 28 days): 22.5 mg/m^2

O[C@@H](COc1cccc2ncccc12)CN1CCN([C@@H]2c3ccccc3[C@@H]3[C@H](c4ccccc42)C3(F)F)CC1 [zosuquidar]
effect of zosuquidar on vinorelbine clearance ([8]; phase I study): may inhibit vinorelbine clearance to a modest degree
